Molecules are shown by their SMILES.

Test [1] deals with C-Raf kinase (SEQ. ID NO: 3) (Homo sapiens (Human), UniProt P04049, Y340D/Y341D). The test is described as follows: Biochemical Assay for C-Raf (1). Conditions: Table J, assay version (1); read-out: CRAF (1) IC50. In outline:
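Coupled pyruvate kinase/LDH assay tracking NADH oxidation at 340 nm, with 0.43 nM C-Raf, 30.1 nM MEK and 1 mM ATP in pH 7.5 Tris buffer (15 mM MgCl2, 1% DMSO final). Read continuously for 6 h at 30 °C, rate taken from the 4–5 h window. IC50 from four-parameter fit of percent inhibition.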

Test [2] deals with B-Raf (V600E) (SEQ. ID NO: 4) kinase (Homo sapiens (Human), UniProt P15056, V600E). The test is described as follows: Biochemical Assay for B-Raf (V600E) (1). Conditions: Table J, BRAF V600E, assay version (1); read-out: BRAF VE (1) IC50. The method, boiled down:
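Coupled pyruvate kinase/lactate dehydrogenase assay: 0.03 nM B-Raf V600E, 30.1 nM MEK, 1 mM ATP, pH 7.5 Tris/MgCl2 buffer, 1% DMSO. NADH oxidation followed at 340 nm for 6 h at 30 °C; rate from 3–4 h converted to percent inhibition, IC50 by four-parameter fit.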

Test [3] deals with A375 cells. The test is described as follows: A375 Cell Proliferation Assay (1). It is filed as cell-based. Conditions: Homo sapiens, A-375. The method, boiled down: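 Resazurin fluorescence (excitation 540 nm, emission 600 nm, after a further 5-6 h) gave IC50s from triplicate compound dilution series.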
Test [4] relates to H2405 cells. Briefly: H2405 Cell Proliferation Assay (1). It is filed as cell-based. Conditions: Homo sapiens, NCI-H2405. The method, boiled down: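 Viability was read by resazurin reduction (ex 540 nm, em 600 nm; 5-6 h with 40 μL of 440 μM stock) after 67-72 h compound exposure at 37 °C.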

C-Raf kinase (SEQ. ID NO: 3), sequence (P04049 307-648 Y340D/Y341D): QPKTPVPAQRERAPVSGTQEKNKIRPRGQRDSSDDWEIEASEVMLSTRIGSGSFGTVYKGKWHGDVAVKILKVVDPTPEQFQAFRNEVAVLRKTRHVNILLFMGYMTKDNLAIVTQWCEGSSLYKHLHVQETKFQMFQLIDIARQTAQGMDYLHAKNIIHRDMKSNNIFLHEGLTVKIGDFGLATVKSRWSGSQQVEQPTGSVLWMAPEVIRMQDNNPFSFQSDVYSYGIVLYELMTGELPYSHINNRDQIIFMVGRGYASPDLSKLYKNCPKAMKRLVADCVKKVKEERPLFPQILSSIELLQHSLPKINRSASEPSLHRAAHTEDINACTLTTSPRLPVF
B-Raf (V600E) (SEQ. ID NO: 4) kinase, sequence (P15056 416-766 V600E): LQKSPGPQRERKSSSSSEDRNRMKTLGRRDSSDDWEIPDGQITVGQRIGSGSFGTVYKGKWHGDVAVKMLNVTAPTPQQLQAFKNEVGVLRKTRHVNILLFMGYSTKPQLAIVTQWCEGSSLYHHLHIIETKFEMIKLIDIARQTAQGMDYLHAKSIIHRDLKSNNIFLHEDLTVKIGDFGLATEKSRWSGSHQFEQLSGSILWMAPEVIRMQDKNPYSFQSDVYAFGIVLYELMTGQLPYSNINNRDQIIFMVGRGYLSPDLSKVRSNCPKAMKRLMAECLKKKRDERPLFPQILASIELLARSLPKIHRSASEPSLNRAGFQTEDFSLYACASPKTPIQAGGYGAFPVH

Consider `CC(=O)Nc1cc(-c2cc(-c3cc(NC(=O)c4ccnc(C(F)(F)F)c4)ccc3C)cn(C)c2=O)ccn1` [Example 21, N-(3-(2′-acetamido-1-methyl-2-oxo-1,2-dihydro-[3,4′-bipyridin]-5-yl)-4-methylphenyl)-2-(trifluoromethyl)isonicotinamide], for which the values for the IC50 in test [1], in test [2] and in test [3] were not above 100 nM, not above 100 nM and 1000 to 10000 nM, respectively.
Consider `Cc1ccc(NC(=O)c2ccnc(C(C)(C)C#N)c2)cc1-c1nccc(-c2ccnc3c2CC(=O)N3)n1` [Example 22], for which the IC50 (commonly the concentration at which inhibition is half-maximal) is not above 100 nM in test [1], not above 100 nM in test [2] and 1000 to 10000 nM in test [3].
For `Cc1ccc(NC(=O)c2ccnc(C(C)(C)C#N)c2)cc1-c1ccnc(-c2ccnc3c2CC(=O)N3)c1` [Example 23], the IC50 in test [1] was not above 100 nM; in test [4], 100 to 500 nM; in test [2] it was not above 100 nM; in test [3], not above 100 nM.
Turning to `CC(=O)Nc1cc(-c2nccc(-c3cc(NC(=O)c4ccnc(C(F)(F)F)c4)ccc3C)n2)ccn1` [Example 24], the IC50 in test [1], in test [2] and in test [3] was not above 100 nM in each case.
`CNC(=O)c1cc(-c2nccc(-c3cc(NC(=O)c4ccnc(C(F)(F)F)c4)ccc3C)n2)ccn1` [Example 25]: the IC50 in test [1] was not above 100 nM; in test [2], not above 100 nM; in test [3], 500 to 1000 nM.
Turning to `CC(=O)Nc1cc(-c2cc(-c3cc(C(=O)Nc4ccnc(C(F)(F)F)c4)ccc3C)ccn2)ccn1` [Example 26], the concentration for half-maximal inhibition (IC50) was not above 100 nM in test [1], not above 100 nM in test [2] and 100 to 500 nM in test [3].
For the compound `CNC(=O)c1cc(-c2cc(-c3cc(NC(=O)c4ccnc(C(F)(F)F)c4)ccc3C)cc(C3CC3)n2)ccn1` [Example 27], the IC50 in test [1] was 100 to 500 nM; in test [4], not above 100 nM; in test [2], not above 100 nM; in test [3], not above 100 nM.
As to `CC(=O)Nc1cc(-c2cccc(-c3cc(NC(=O)c4ccnc(C(F)(F)F)c4)ccc3C)c2)ccn1` [Example 28], the IC50 in test [1], in test [2] and in test [3] was not above 100 nM in each case.
Turning to `CC(=O)Nc1cc(-c2cncc(-c3cc(NC(=O)c4ccnc(C(F)(F)F)c4)ccc3C)n2)ccn1` [Example 29], the IC50 in test [1] was not above 100 nM; in test [4] it was not above 100 nM; in test [2], not above 100 nM; in test [3], 100 to 500 nM.
Take `CC(=O)Nc1cc(-c2cccc(-c3cc(NC(=O)c4ccnc(C(F)(F)F)c4)ccc3C)c2)ncn1` [Example 30]: the half-inhibitory concentration (IC50) in test [1], in test [4], in test [2] and in test [3] was not above 100 nM in each case.
As to `CNC(=O)c1cc(-c2cc(-c3cc(C(=O)Nc4ccnc(C(F)(F)F)c4)ccc3C)ccn2)ccn1` [Example 31], the IC50 in test [1] was not above 100 nM; in test [2], not above 100 nM; in test [3], 1000 to 10000 nM.
`Cc1ncc(NC(=O)c2cncc(C(F)F)c2)cc1-c1cccc(-c2cc(NC(=O)C3CC3)ncn2)c1` [Example 280]: the IC50 in test [1] is not above 100 nM; in test [4] it was 100 to 500 nM; in test [2], not above 100 nM; in test [3], 100 to 500 nM.
On to `Cc1ncc(NC(=O)c2cn(C(C)C)nn2)cc1-c1ccnc(-c2ccnc(NC(=O)C3CC3)c2)n1` [Example 281], for which the IC50 in test [1] is not above 100 nM; in test [4], 100 to 500 nM; in test [2] it was not above 100 nM; in test [3], 1000 to 10000 nM.
In the case of `COC(=O)Nc1cc(-c2cccc(-c3cc(NC(=O)c4ccnc(C(C)(C)C#N)c4)cnc3C)c2)ccn1` [Example 282], the IC50 in test [1] is not above 100 nM; in test [4], 500 to 1000 nM; in test [2], not above 100 nM; in test [3], not above 100 nM.
Consider `Cc1ncc(NC(=O)c2cnn(C(C)(C)C)c2)cc1-c1ccnc(-c2ccnc(NC(=O)C3CC3)c2)n1` [Example 283], for which the IC50 in test [1] is not above 100 nM; in test [4], 100 to 500 nM; in test [2], not above 100 nM; in test [3], 100 to 500 nM.
As for `Cc1ccc(NC(=O)c2cnnc(C3CC3)c2)cc1-c1cccc(-c2cc(NC(=O)C3CC3)ncn2)c1` [Example 284], the IC50 in test [1] is not above 100 nM; in test [4], 500 to 1000 nM; in test [2], not above 100 nM; in test [3], not above 100 nM.
As to `Cc1ncc(NC(=O)c2cn(C(C)C)nn2)cc1-c1nccc(-c2ccnc(NC(=O)C3CC3)c2)n1` [Example 285], the half-maximal inhibitory concentration (IC50) in test [1] was not above 100 nM; in test [4] it was 1000 to 10000 nM; in test [2], not above 100 nM; in test [3], 1000 to 10000 nM.
As to `Cc1nc(-c2ccnc(NC(=O)C3CC3)c2)cc(-c2cc(NC(=O)c3ccnc(C4(C#N)CC4)c3)cnc2C)n1` [Example 286], the half-inhibitory concentration (IC50) was not above 100 nM in test [1], 100 to 500 nM in test [4], not above 100 nM in test [2] and 500 to 1000 nM in test [3].
Turning to `Cc1nc(-c2ccnc(NC(=O)C3CC3)c2)cc(-c2cc(NC(=O)c3ccnc(C4CC4)c3)cnc2C)n1` [Example 287], the IC50 in test [1] was not above 100 nM; in test [4] it was 500 to 1000 nM; in test [2] it was not above 100 nM; in test [3] it was 1000 to 10000 nM.
For the compound `COC(=O)Nc1cc(-c2cccc(-c3cc(NC(=O)c4ccnc(C5CC5)c4)cnc3C)c2)ccn1` [Example 288], the IC50 is not above 100 nM in test [1], 1000 to 10000 nM in test [4], not above 100 nM in test [2] and 1000 to 10000 nM in test [3].
In the case of `COC(=O)Nc1nccc(-c2cccc(-c3cc(NC(=O)c4ccnc(C(C)(C)C#N)c4)cnc3C)c2)n1` [Example 290], the 50% inhibitory concentration (IC50) in test [1] was 100 to 500 nM; in test [4], 1000 to 10000 nM; in test [2], not above 100 nM; in test [3], 1000 to 10000 nM.
For `Cc1ncc(NC(=O)c2ccnc(C3CC3)c2)cc1-c1cccc(-c2cc(NC(=O)C3CC3)ncn2)c1` [Example 291], the IC50 was not above 100 nM in test [1], 100 to 500 nM in test [4], not above 100 nM in test [2] and 100 to 500 nM in test [3].
Turning to `Cc1ncc(NC(=O)c2cnnc(C3CC3)c2)cc1-c1nccc(-c2ccnc(NC(=O)C3CC3)c2)n1` [Example 294], the IC50 in test [1] is not above 100 nM; in test [4], 100 to 500 nM; in test [2] it was not above 100 nM; in test [3] it was 1000 to 10000 nM.
As for `Cc1ncc(NC(=O)c2ccnc(C3CC3)c2)cc1-c1nccc(-c2ccnc(NC(=O)C3CC3)c2)n1` [Example 295], the IC50 in test [1] was not above 100 nM; in test [4], 100 to 500 nM; in test [2], not above 100 nM; in test [3] it was 500 to 1000 nM.
On to `COC(=O)Nc1cc(-c2cc(-c3cc(NC(=O)c4ccnc(C(C)(C)C#N)c4)cnc3C)ccn2)ccn1` [Example 297], for which the IC50 in test [1], in test [4], in test [2] and in test [3] was not above 100 nM each time.
Take `Cc1cc(F)c(NC(=O)c2ccnc(C(C)(C)C#N)c2)cc1-c1cc(-c2ccnc(NC(=O)C3CC3)c2)cnn1` [Example 298]: the concentration for half-maximal inhibition (IC50) in test [1] is not above 100 nM; in test [4], 100 to 500 nM; in test [2], not above 100 nM; in test [3], 100 to 500 nM.
With `COC(=O)Nc1cc(-c2cnnc(-c3cc(NC(=O)c4ccnc(C(C)(C)C#N)c4)c(F)cc3C)c2)ccn1` [Example 299], the IC50 in test [1] is not above 100 nM; in test [4] it was 100 to 500 nM; in test [2], not above 100 nM; in test [3], 100 to 500 nM.
Take `Cc1cc(F)c(NC(=O)c2ccnc(C(C)(C)F)c2)cc1-c1ccnc(-c2ccnc(NC(=O)C3CC3)c2)c1` [Example 300]: the IC50 in test [1], in test [4], in test [2] and in test [3] was not above 100 nM each time.
On to `Cc1ncc(NC(=O)c2ccnc(C(C)(C)C#N)c2)cc1-c1cccc(-c2ccnc(C(N)=O)c2)c1` [Example 301], for which the IC50 in test [1] was not above 100 nM; in test [4] it was 100 to 500 nM; in test [2], not above 100 nM; in test [3], 100 to 500 nM.
On to `COC(=O)Nc1cc(-c2cc(-c3cc(NC(=O)c4ccnc(C(C)(C)F)c4)c(F)cc3C)ccn2)ccn1` [Example 302], for which the IC50 in test [1] was not above 100 nM; in test [4], 100 to 500 nM; in test [2], not above 100 nM; in test [3], not above 100 nM.
Regarding `COC(=O)Nc1cc(-c2nccc(-c3cc(NC(=O)c4ccnc(C(C)(C)C#N)c4)c(F)cc3C)n2)ccn1` [Example 303], the IC50 in test [1], in test [4], in test [2] and in test [3] was not above 100 nM throughout.
With `COC(=O)Nc1cc(-c2nccc(-c3cc(NC(=O)c4ccnc(C(C)(C)F)c4)c(F)cc3C)n2)ccn1` [Example 304], the IC50 is not above 100 nM in test [1], 100 to 500 nM in test [4], not above 100 nM in test [2] and 100 to 500 nM in test [3].
`COC(=O)Nc1cc(-c2cnnc(-c3cc(NC(=O)c4ccnc(C(C)(C)C#N)c4)ccc3C)c2)ccn1` [Example 305]: the IC50 was not above 100 nM in test [1], 100 to 500 nM in test [4], not above 100 nM in test [2] and 100 to 500 nM in test [3].
As to `CO[C@H]1CC[C@H](C(=O)Nc2ccc(C)c(-c3ccnc(-c4ccnc(NC(=O)C5CC5)c4)n3)c2)CC1` [Example 341], the IC50 is not above 100 nM in test [1], not above 100 nM in test [2] and 1000 to 10000 nM in test [3].

(Values after patent US12319655B2, “RAF kinase inhibitors and methods of use thereof” (Deciphera Pharmaceuticals, LLC, priority 2021, dated 2025).)
